# Data reported in patent US20260174769A1, “MACROCYCLIC COMPOUNDS AND METHODS OF USE” (AMGEN INC., priority 2022, published 2026).
# Molecular target: His-tagged KRAS G12D protein (Homo sapiens, UniProt P01116, G12D)
# Assay: KRAS G12D TR-FRET Assay
# Type: binding
# Conditions: TR-FRET binding
# Method: The His-tagged KRAS G12D protein (Amgen) was diluted to 20 nM in Assay Buffer (20 mM HEPES, pH 7.4, 10 mM MgCl2, 50 mM NaCl, 0.1% BSA, 0.01% Tween-20, 10 μM GDP) and 2 μL was added to the appropriate wells of the 384-well plate. The plate was incubated for 30 minutes at room temperature. Biotinylated KRPep-2d substrate (Amgen) was diluted to 20 nM in Assay Buffer and 2 μL was added to all wells and incubated for 1 hour at room temperature. Detection Reagent (0.4 nM LANCE Eu-W1024 Anti-6×His (Perkin Elmer AD0401), 5 nM streptavidin-d2 (Cisbio 610SADLA)) was prepared in Assay Buffer, then 4 μL was added to the plate and incubated for 1 hour at room temperature.
# His-tagged KRAS G12D protein, sequence (P01116 1-188 isoform P01116-2 G12D): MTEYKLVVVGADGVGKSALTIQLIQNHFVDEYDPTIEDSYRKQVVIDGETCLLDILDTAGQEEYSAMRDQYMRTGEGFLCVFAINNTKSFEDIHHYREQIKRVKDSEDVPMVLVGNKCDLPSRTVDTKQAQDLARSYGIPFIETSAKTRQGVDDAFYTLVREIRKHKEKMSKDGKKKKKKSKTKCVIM
row,Compound,IC50
1,"Cc1cc2[nH]ncc2c2c1CCCCO[C@@H](C)[C@H]1CN(CCO1)c1nc(OC[C@@]34CCCN3C[C@H](F)C4)nc3c(F)c-2ncc13 (single isomer, unassigned) [Example 242]",1.14 µM
2,"Cc1cc2[nH]ncc2c2c1CCCCO[C@H](C)[C@@H]1CN(CCO1)c1nc(OC[C@@]34CCCN3C[C@H](F)C4)nc3c(F)c-2ncc13 (single isomer, unassigned) [Example 243]",4.48 µM
3,"Cc1cc2[nH]ncc2c2c1CCCCO[C@@H](C)[C@@H]1CN(CCO1)c1nc(OC[C@@]34CCCN3C[C@H](F)C4)nc3c(F)c-2ncc13 (single isomer, unassigned) [Example 244]",0.027 µM
4,"Fc1c2ncc3c(nc(OC[C@@]45CCCN4C[C@H](F)C5)nc13)N1CCC[C@@H](C1)c1coc(n1)CCCc1c(Cl)cc3[nH]ncc3c1-2 (single isomer, unassigned) [Example 245]",0.583 µM
5,"C[C@H]1CCOC[C@H]2CN(CCO2)c2nc(OC[C@@]34CCCN3C[C@H](F)C4)nc3c(F)c(ncc23)-c2c(c(Cl)cc3[nH]ncc23)C1 (single isomer, unassigned) [Example 252]",0.028 µM
6,"C[C@@H]1CCOC[C@H]2CN(CCO2)c2nc(OC[C@@]34CCCN3C[C@H](F)C4)nc3c(F)c(ncc23)-c2c(c(Cl)cc3[nH]ncc23)C1 (single isomer, unassigned) [Example 253]",0.009 µM
7,"Fc1c2ncc3c(nc(OC[C@@]45CCCN4C[C@H](F)C5)nc13)N1CCO[C@]3(C1)C[C@@H](C3)OCCCCc1c(Cl)cc3[nH]ncc3c1-2 (single isomer, unassigned) [Example 261]",0.006 µM
8,"CN1C(=O)COCC[C@H]2CCc3cc4[nH]ncc4c(c32)-c2ncc3c(nc(OC[C@@]45CCCN4C[C@H](F)C5)nc3c2F)N2CCC[C@@H]1C2 (single isomer, unassigned) [Example 278]",19.3 µM
9,"CN1C(=O)COCC[C@@H]2CCc3cc4[nH]ncc4c(c32)-c2ncc3c(nc(OC[C@@]45CCCN4C[C@H](F)C5)nc3c2F)N2CCC[C@@H]1C2 (single isomer, unassigned) [Example 279]",0.333 µM
10,"O=C1N[C@H]2C[C@@H](O)CN(C2)c2nc(OC[C@@]34CCCN3C[C@H](F)C4)nc3c(F)c(ncc23)-c2c(c(Cl)cc3[nH]ncc23)CCCO1 (single isomer, unassigned) [Example 285]",1.91 µM
11,"CN1C(=O)OCCCc2c(Cl)cc3[nH]ncc3c2-c2ncc3c(nc(OC[C@@]45CCCN4C[C@H](F)C5)nc3c2F)N2C[C@@H](O)C[C@@H]1C2 (single isomer, unassigned) [Example 286]",0.081 µM
12,"Cc1cc2[nH]ncc2c2c1CCCOC(=O)N[C@]1(C)CCCCN(C1)c1nc(OC[C@@]34CCCN3C[C@H](F)C4)nc3c(F)c-2ncc13 (single isomer, unassigned) [Example 292]",0.004 µM
13,"Cc1cc2[nH]ncc2c2c1CCCOC(=O)N[C@@]1(C)CCCCN(C1)c1nc(OC[C@@]34CCCN3C[C@H](F)C4)nc3c(F)c-2ncc13 (single isomer, unassigned) [Example 293]",50 µM
14,"Fc1c2ncc3c(nc(OC[C@@]45CCCN4C[C@H](F)C5)nc13)N1CCCC[C@@H](C1)c1cnn(n1)CCCc1c(Cl)cc3[nH]ncc3c1-2 (single isomer, unassigned) [Example 295]",2.25 µM
15,"Fc1c2ncc3c(nc(OC[C@@]45CCCN4C[C@H](F)C5)nc13)N1CCCC[C@H](C1)c1cnn(n1)CCCc1c(Cl)cc3[nH]ncc3c1-2 (single isomer, unassigned) [Example 296]",0.004 µM
16,"Fc1c2ncc3c(nc(OC[C@@]45CCCN4C[C@H](F)C5)nc13)N1CCOC[C@@H](C1)c1cnn(n1)CCCc1c(Cl)cc3[nH]ncc3c1-2 (single isomer, unassigned) [Example 297]",8.07 µM
17,"Fc1c2ncc3c(nc(OC[C@@]45CCCN4C[C@H](F)C5)nc13)N1CCOC[C@H](C1)c1cnn(n1)CCCc1c(Cl)cc3[nH]ncc3c1-2 (single isomer, unassigned) [Example 298]",0.007 µM
18,"O=C1N[C@@H]2CCCCN(C2)c2nc(OC[C@@]34CCCN3C[C@H](F)C4)nc3c(F)c(ncc23)-c2c3c(cc4[nH]ncc24)CC[C@H]3CCO1 (single isomer, unassigned) [Example 301]",0.005 µM

row,Compound,IC50
1,"O=C1N[C@@H]2CCCCN(C2)c2nc(OC[C@@]34CCCN3C[C@H](F)C4)nc3c(F)c(ncc23)-c2c3c(cc4[nH]ncc24)CC[C@@H]3CCO1 (single isomer, unassigned) [Example 302]",1.27 µM
2,"C[C@@]12COCCN(C1)c1nc(OC[C@H]3CC[C@@H]4COCCN43)nc3c(F)c(ncc13)-c1c(c(Cl)cc3[nH]ncc13)CCCOC(=O)O2 (single isomer, unassigned) [Example 308]",0.006 µM
3,"C[C@@]12COCCN(C1)c1nc(OC[C@@H]3CC[C@H]4COCCN43)nc3c(F)c(ncc13)-c1c(c(Cl)cc3[nH]ncc13)CCCOC(=O)O2 (single isomer, unassigned) [Example 309]",0.01 µM
4,"O=C1OCCCc2c(Cl)cc3[nH]ncc3c2-c2ncc3c(nc(OC[C@@]45CCCN4C[C@H](F)C5)nc3c2F)N2CCOC[C@@](CF)(C2)O1 (single isomer, unassigned) [Example 310]",2.26 µM
5,"O=C1OCCCc2c(Cl)cc3[nH]ncc3c2-c2ncc3c(nc(OC[C@@]45CCCN4C[C@H](F)C5)nc3c2F)N2CCOC[C@](CF)(C2)O1 (single isomer, unassigned) [Example 311]",0.005 µM
6,"Cc1cc2[nH]ncc2c2c1CCOC(=O)O[C@H]1C[C@@]3(CCCN(C3)c3nc(OC[C@@H]4CCCN4C)nc4c(F)c-2ncc34)C1 (single isomer, unassigned) [Example 325]",0.099 µM
7,"Cc1cc2[nH]ncc2c2c1CCOC(=O)O[C@H]1C[C@]3(CCCN(C3)c3nc(OC[C@@H]4CCCN4C)nc4c(F)c-2ncc34)C1 (single isomer, unassigned) [Example 326]",0.004 µM
8,"CN(C)CC1(COc2nc3c4cnc(c(F)c4n2)-c2c(c(Cl)cc4[nH]ncc24)CCCOC(=O)O[C@]2(C)COCCN3C2)CC1 (single isomer, unassigned) [Example 331]",0.005 µM
9,"CN(C)CC1(COc2nc3c4cnc(c(F)c4n2)-c2c(c(Cl)cc4[nH]ncc24)CCCOC(=O)O[C@@]2(C)COCCN3C2)CC1 (single isomer, unassigned) [Example 332]",3.24 µM
10,"CN1CCC[C@H]1COc1nc2c3cnc(c(F)c3n1)-c1c(c(Cl)cc3[nH]ncc13)CCCOC(=O)O[C@@]1(CF)COCCN2C1 (single isomer, unassigned) [Example 337]",2.44 µM
11,"CN1CCC[C@H]1COc1nc2c3cnc(c(F)c3n1)-c1c(c(Cl)cc3[nH]ncc13)CCCOC(=O)O[C@]1(CF)COCCN2C1 (single isomer, unassigned) [Example 338]",0.007 µM
12,"O=C1OCCCc2c(Cl)cc3[nH]ncc3c2-c2ncc3c(nc(OC[C@@]45CCCN4C[C@H](F)C5)nc3c2F)N2CCCC[C@](CF)(C2)O1 (single isomer, unassigned) [Example 340]",0.004 µM
13,"[2H]C([2H])([2H])[C@]12COCCN(C1)c1nc(OC[C@@]34CCCN3C[C@H](F)C4)nc3c(F)c(ncc13)-c1c(c(C)cc3[nH]ncc13)CCCOC(=O)O2 (single isomer, unassigned) [Example 351]",0.464 µM
14,"[2H]C([2H])([2H])[C@@]12COCCN(C1)c1nc(OC[C@@]34CCCN3C[C@H](F)C4)nc3c(F)c(ncc13)-c1c(c(C)cc3[nH]ncc13)CCCOC(=O)O2 (single isomer, unassigned) [Example 352]",0.006 µM
15,"[2H]C([2H])([2H])[C@]12COCCN(C1)c1nc(OC[C@@]34CCCN3C[C@H](F)C4)nc3c(F)c(ncc13)-c1c(c(Cl)cc3[nH]ncc13)CCCOC(=O)O2 (single isomer, unassigned) [Example 354]",1.59 µM
16,"C[C@@]12COCCN(C1)c1nc(OC[C@@]34CCCN3C[C@H](F)C4)nc3c(F)c(ncc13)-c1c3c(cc4[nH]ncc14)CC[C@H]3CCOC(=O)O2 (single isomer, unassigned) [Example 365]",0.003 µM
17,"C[C@@]12COCCN(C1)c1nc(OC[C@@]34CCCN3C[C@H](F)C4)nc3c(F)c(ncc13)-c1c3c(cc4[nH]ncc14)CC[C@@H]3CCOC(=O)O2 (single isomer, unassigned) [Example 366]",0.938 µM
18,"O=C1OCC[C@@H]2CCc3cc4[nH]ncc4c(c32)-c2ncc3c(nc(OC[C@@]45CCCN4C[C@H](F)C5)nc3c2F)N2CCOC[C@H](C2)O1 (single isomer, unassigned) [Example 367]",0.004 µM

# Same assay, conditions: TR-FRET; read-out: KRAS G12D Binding IC50
row,Compound,IC50
1,"Fc1c2ncc3c(nc(OC[C@@]45CCCN4C[C@H](F)C5)nc13)N1CCOC[C@H](Cc3ncc(o3)CCc3c(Cl)cc4[nH]ncc4c3-2)C1 (single isomer, unassigned) [Example 375]",0.027 µM
2,"Fc1c2ncc3c(nc(OC[C@@]45CCCN4C[C@H](F)C5)nc13)N1CCOC[C@@H](Cc3ncc(o3)CCc3c(Cl)cc4[nH]ncc4c3-2)C1 (single isomer, unassigned) [Example 376]",0.016 µM
3,"Fc1c2ncc3c(nc(OC[C@@]45CCCN4C[C@H](F)C5)nc13)N1CCC[C@@H](C1)c1cnc(o1)CCCc1c(Cl)cc3[nH]ncc3c1-2 (single isomer, unassigned) [Example 386]",3.73 µM
4,"Fc1c2ncc3c(nc(OC[C@@]45CCCN4C[C@H](F)C5)nc13)N1CCO[C@@H](C1)c1coc(n1)CCCc1c(Cl)cc3[nH]ncc3c1-2 (single isomer, unassigned) [Example 389]",3.96 µM
5,"Fc1c2ncc3c(nc(OC[C@@]45CCCN4C[C@H](F)C5)nc13)N1CCO[C@H](C1)c1coc(n1)CCCc1c(Cl)cc3[nH]ncc3c1-2 (single isomer, unassigned) [Example 390]",0.005 µM
